Measurements published in patent US20010049357A1, “Use of Hsp27 as an anti-inflammatory agent” (priority 1999, published 2001).
Where two headings read alike, the source gives them in different places.

Tests used:
human MØ [1] = experiment: IL-10 production by human MØ (ELISA of culture supernates); assay type: cell-based
human MØ [2] = experiment: TNFα production by human MØ (ELISA of culture supernates); assay type: cell-based
Normal control monocytes = assay type: cell-based, human
[3] = test system: IL-10 mRNA in human monocytes; experiment: RNAse protection assay of IL-10 mRNA in human monocytes; assay type: cell-based
p38 MAPK = experiment: Immunoblot for activation (phosphorylation) of p38 MAPK in human MØ; assay type: cell-based; conditions: after addition of Hsp 27 2 μg/ml
Experimental: (§1) Monocytes (1.5×10^6 cells) were cultured in serum free medium for 2 hrs and then stimulated with Hsp 27 (2 μg/ml) for different time periods (1 min to 3 hrs). Western blot analysis was performed, essentially as described previously (29). Briefly, cells were lysed using a buffer consisting of 1% Nonidet P-40, 50 mM HEPES (pH 7.2), 100 mM NaCl, 2 mM EDTA, 1 mM pyrophosphate, 2 mM Na3VO4, 10 mM NaF, 1 mM PMSF, 10 μg/ml leupeptin and 10 μg/ml aprotinin. Postnuclear supernates were harvested after centrifugation of the lysate for 15 min at 14,000 g at 4° C. Equal amounts of postnuclear lysates were boiled for 5 min in the presence of SDS sample buffer (reducing) and subjected to SDS-12% PAGE and then transferred to nitrocellulose membrane (Millipore Corp, Bedford, Mass.) in transfer buffer [25 mM Tris, 192 mM glycine, pH 8.3, 20% (V/V) methanol]. Membranes were first rinsed in TTBS (TBS with 0.1% Tween 20) and then blocked for 1 hr at room temperature in TTBS-5% W/V nonfat dry milk. The membrane was then incubated overnight at 4° C. with antiphospho-p38 MAPK antibody (rabbit polyclonal; New England Biolab) (1:1000 dilution in TTBS-1% BSA). Antibody-antigen complexes were detected with the aid of HRP-conjugated anti-rabbit secondary antibody (1:2000 dilution) (New England Biolab) followed by detection of the bands with ECL reagent (NEN Life Science Products). […]
(§2) To assess the activation (phosphorylation) of three different mitogen-activated protein kinases (MAPK)—p38, p44/42 (Erk 1/2) and p46/54 (SAPK/JNK-1/2) after Hsp 27 addition, we stimulated human MØ at different time points and measured activated p38, Erk 1/2 and JNK 1/2 using the respective antibodies against the phosphorylated forms of the MAPKs. […]

p44/42 (Erk 1/2) = experiment: Immunoblot for activation (phosphorylation) of Erk 1/2 in human MØ; assay type: cell-based; conditions: after addition of Hsp 27 2 μg/ml
Experimental: Monocytes (1.5×10^6 cells) were cultured in serum free medium for 2 hrs and then stimulated with Hsp 27 (2 μg/ml) for different time periods (1 min to 3 hrs). Western blot analysis was performed, essentially as described previously (29). Briefly, cells were lysed using a buffer consisting of 1% Nonidet P-40, 50 mM HEPES (pH 7.2), 100 mM NaCl, 2 mM EDTA, 1 mM pyrophosphate, 2 mM Na3VO4, 10 mM NaF, 1 mM PMSF, 10 μg/ml leupeptin and 10 μg/ml aprotinin. Postnuclear supernates were harvested after centrifugation of the lysate for 15 min at 14,000 g at 4° C. […] Antibody-antigen complexes were detected with the aid of HRP-conjugated anti-rabbit secondary antibody (1:2000 dilution) (New England Biolab) followed by detection of the bands with ECL reagent (NEN Life Science Products). […]
as §2

p46/54 (SAPK/JNK-1/2) = experiment: Immunoblot for activation (phosphorylation) of SAPK/JNK in human MØ; assay type: cell-based
Experimental: as §1, §2

MAPKAPKinase-2 = assay type: cell-based, human
MØ = MØ conversion (differentiation) into immature dendritic cells by IL-4 plus GM-CSF; assay type: cell-based; conditions: Hsp27 added to MØ cultures at the initiation of conversion
Source text: In a preferred method for obtaining dendritic cells in vitro, isolated MØ are are first stimulated to undergo conversion (differentiation) into immature dendritic cells, and then stimulated to mature into fully active or competent dendritic cells. Conversion can be stimulated or promoted in vitro by any effective treatment. For example, conversion can be promoted by treating the MØ with an effective amount of IL-4 and an effective amount of GM-CSF, in accordance with conventional techniques. Typically, the IL-4 and GM-CSF treatment is for approximately 3-4 days. One indication of conversion is expression of CD1a. For guidance concerning in vitro conversion of MØ to immature dendritic cells, see, e.g., Chapius et al., 1997, Eur. J. Immunol. 27:431-441.
(§3) Hsp27 added to MØ cultures at the initiation of conversion inhibited differentiation of MØ to dendritic cells mediated or promoted by the combination of IL-4 plus GM-CSF.

immature dendritic cells = experiment: Maturation of immature dendritic cells (CD83 expression); assay type: cell-based
Experimental: Preferably, the MØ are not brought into contact with Hsp27 before their conversion into immature dendritic cells, because Hsp27 inhibits the conversion. After conversion, however, Hsp27 acts as a potent promoter of maturation by the immature dendritic cells. […] Dendritic cell maturation is detectable as early as 24 hours after initiation of Hsp27 treatment. Preferably, however, Hsp27-induced maturation is allowed to proceed for 48 to 72 hours. One useful indication of dendritic cell maturation is expression of CD83.
as §3

[4] = after addition of Hsp 27 2 μg/ml

polymyxin B [reference compound]
effect on Hsp 27 induced MØ IL-10 production (human MØ [1]; polymyxin B 200 U/ml together with Hsp 27 2 μg/ml): could not inhibit

COc1cccc(-c2cc(=O)c3ccccc3o2)c1N [PD98059, reference compound]
effect on Hsp 27 induced MØ IL-10 production (human MØ [1]): did not have any inhibitory effect | TNFα induced by Hsp 27 blocked (human MØ [2]; inhibitor 10 μM for 2 hrs before Hsp 27 2 μg/ml): 68%

heat shock protein-27 [Hsp 27]
IL-10(pg/10^6 cells/ml) x ± SEM (human MØ [1]): 5267 ± 610 pg/10^6 cells/ml | MØ IL-10 production (human MØ [1]): approximately 3400 pg/ml | increase in IL-10 as compared to SEB+MDP (human MØ [1]): approximately 3 fold | increase in IL-10 relative to SEB+MDP (human MØ [1]): 2.5-3.5 | optimum concentration for Hsp 27 induced MØ IL-10 production (human MØ [1]; dose-dependent, FIG. 1B): 1 to 5 µg/mL | MØ TNFα production (human MØ [2]; 16-18 hrs): 483 ± 74 pg/mL | IL-12(pg/10^6 cells/ml) x ± SEM (Normal control monocytes): 3428 ± 1102 pg/10^6 cells/ml | increase in IL-12 as compared to SEB+MDP (Normal control monocytes): approximately 3 fold | increase in IL-12 relative to SEB+MDP (Normal control monocytes): 2.5-3.5 | IL-10 mRNA levels relative to control MDP+SEB induced levels [3]: 3.2 fold | increase in IL-10 mRNA levels compared to only adherence stimulated MØ ([3]; Hsp 27 2 μg/ml, 8-9 hrs): ~7.2 fold | persistence of p38 MAPK activation (p38 MAPK): up to 180 min | time at which p38 MAPK phosphorylation was clearly increased (p38 MAPK): 20 min | time of maximal stimulation of p38 MAPK (p38 MAPK): 40 min | time at which Erk 1/2 phosphorylation was clearly increased (p44/42 (Erk 1/2)): 20 min | time of maximal stimulation of Erk 1/2 (p44/42 (Erk 1/2)): 40 min | time at which JNK 1/2 phosphorylation was clearly increased (p46/54 (SAPK/JNK-1/2); [4]): 20 min | time of maximal stimulation of JNK 1/2 (p46/54 (SAPK/JNK-1/2); [4]): 40 min | induction of P-p54 JNK (p46/54 (SAPK/JNK-1/2); compared to activation of p38 and Erk): only minimal | MAPKAPKinase-2 activity versus adherence stimulated untreated MØ lysate (MAPKAPKinase-2): significantly increased | effect on differentiation of MØ to dendritic cells promoted by IL-4 plus GM-CSF (MØ): inhibited | effect on maturation of immature DC to mature antigen-presenting DC (immature dendritic cells; Hsp27 added after initial differentiation into DC (day 4 of induction)): strongly promoted | time at which dendritic cell maturation is detectable (immature dendritic cells; after initiation of Hsp27 treatment): ≥ 24 h

TNFα
increase in IL-10 levels (human MØ [1]; exogenous addition of 100 U/ml TNFα): 1.5 fold

C[S+]([O-])c1ccc(-c2nc(-c3ccncc3)c(-c3ccc(F)cc3)[nH]2)cc1 (centres unmarked) [SB203580, reference compound]
inhibition of Hsp 27 induced MØ IL-10 production (human MØ [1]): approximately 80% | TNFα induced by Hsp 27 blocked (human MØ [2]): 90%
